These results are taken from publication PMC3729217 (Chembiochem : a European journal of chemical biology, 2010).

The target in series [1] is T1, PKCε-EGFP (Rattus norvegicus, UniProt P09216).
T1 sequence (P09216 1-737): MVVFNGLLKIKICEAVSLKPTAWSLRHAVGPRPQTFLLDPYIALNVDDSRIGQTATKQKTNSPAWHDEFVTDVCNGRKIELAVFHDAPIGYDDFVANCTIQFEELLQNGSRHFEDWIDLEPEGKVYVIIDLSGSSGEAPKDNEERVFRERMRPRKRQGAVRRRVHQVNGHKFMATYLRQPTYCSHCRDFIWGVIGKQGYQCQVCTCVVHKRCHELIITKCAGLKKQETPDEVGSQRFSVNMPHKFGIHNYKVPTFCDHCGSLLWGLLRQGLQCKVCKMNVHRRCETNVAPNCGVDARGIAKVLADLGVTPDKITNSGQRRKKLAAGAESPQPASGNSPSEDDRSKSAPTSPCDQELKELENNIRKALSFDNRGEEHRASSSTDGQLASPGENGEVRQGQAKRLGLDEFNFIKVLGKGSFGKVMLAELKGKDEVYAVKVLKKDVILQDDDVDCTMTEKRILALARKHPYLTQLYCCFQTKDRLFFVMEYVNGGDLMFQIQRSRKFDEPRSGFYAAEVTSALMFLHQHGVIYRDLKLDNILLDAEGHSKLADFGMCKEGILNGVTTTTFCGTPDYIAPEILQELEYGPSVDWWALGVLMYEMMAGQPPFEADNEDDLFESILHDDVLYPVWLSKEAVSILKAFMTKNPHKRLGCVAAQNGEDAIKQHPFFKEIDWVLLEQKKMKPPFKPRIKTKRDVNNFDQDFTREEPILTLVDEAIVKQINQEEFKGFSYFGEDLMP
Description: Plasma membrane translocation of PKCε-EGFP in transfected MCF-7 cells. The series is classed as cell-based. Particulars: MCF-7 cells expressing PKCε-EGFP, stimulated with 40 μM, 37°C.

The target in series [2] is PKCδ-ECFP (Homo sapiens, UniProt Q05655). The experiment in a line: Plasma membrane translocation of PKCδ-ECFP in transfected MCF-7 cells. The series is classed as cell-based, rat. The following applies: MCF-7 cells expressing PKCδ-ECFP, stimulated with 40 μM, 37°C.
Series [3] concerns the target PKCα-EGFP (Rattus norvegicus, UniProt P05696). Description: Plasma membrane translocation of PKCα-EGFP in transfected MCF-7 cells. Particulars: MCF-7 cells expressing PKCα-EGFP, stimulated with 40 μM, 37°C. In kind it is cell-based.

PKCδ-ECFP, sequence (Q05655 whole entry): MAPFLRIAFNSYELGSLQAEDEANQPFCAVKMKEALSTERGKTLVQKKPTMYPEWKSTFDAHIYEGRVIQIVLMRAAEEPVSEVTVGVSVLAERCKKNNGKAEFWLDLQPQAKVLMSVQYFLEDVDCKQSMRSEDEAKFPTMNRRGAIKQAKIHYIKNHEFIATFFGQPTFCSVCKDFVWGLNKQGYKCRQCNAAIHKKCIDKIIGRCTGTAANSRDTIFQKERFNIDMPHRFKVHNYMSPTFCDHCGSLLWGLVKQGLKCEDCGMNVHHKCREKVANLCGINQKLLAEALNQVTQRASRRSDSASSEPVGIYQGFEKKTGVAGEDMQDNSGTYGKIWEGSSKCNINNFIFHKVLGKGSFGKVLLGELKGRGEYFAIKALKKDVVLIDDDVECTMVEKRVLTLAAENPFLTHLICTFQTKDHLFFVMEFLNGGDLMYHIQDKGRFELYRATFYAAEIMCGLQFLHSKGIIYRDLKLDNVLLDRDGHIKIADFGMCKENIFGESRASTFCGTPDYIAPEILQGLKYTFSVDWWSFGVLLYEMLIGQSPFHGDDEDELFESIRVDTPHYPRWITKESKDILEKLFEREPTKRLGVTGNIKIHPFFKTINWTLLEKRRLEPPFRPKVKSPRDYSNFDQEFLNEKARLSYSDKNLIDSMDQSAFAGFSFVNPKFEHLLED

As for `CCCCCCCCCCCCCC(=O)O[C@@H]1[C@@H](C)[C@@]2(O)[C@@H](C=C(CO)C[C@]3(O)C(=O)C(C)=C[C@@H]23)[C@@H]2C(C)(C)[C@]12OC(C)=O` [PMA, phorbol 12-myristate 13-acetate], the “t1/2, half-time of plasma membrane localization” value was 31 ± 18 s in series [1], 47 ± 22 s in series [2] and 547 ± 192 s in series [3].
